Source: PubChem BioAssay (NCI)
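Where inhibition never reached the appropriate level, the endpoint shown equals the highest concentration tested. Otherwise, values were interpolated linearly from a five-concentration, 48-hour dose response in 96-well plates. TGI is the concentration that stops growth completely.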

What was measured:
Test in all cases: DTP human tumour cell line panel, 48 h
[1] = tested on: 786-0 renal
[2] = tested on: A498 renal
[3] = tested on: A549 NSCLC
[4] = tested on: ACHN renal
[5] = tested on: BT-549 breast
[6] = tested on: CAKI-1 renal
[7] = tested on: CCRF-CEM leukemia
[8] = tested on: COLO 205 colon
[9] = tested on: DU-145 prostate
[10] = tested on: EKVX NSCLC
[11] = tested on: HCC-2998 colon
[12] = tested on: HCT-116 colon
[13] = tested on: HCT-15 colon
[14] = tested on: HL-60(TB) leukemia
[15] = tested on: HOP-62 NSCLC
[16] = tested on: HOP-92 NSCLC
[17] = tested on: HS 578T breast
[18] = tested on: HT29 colon
[19] = tested on: IGROV1 ovarian
[20] = tested on: K-562 leukemia
[21] = tested on: KM12 colon
[22] = tested on: LOX IMVI melanoma
[23] = tested on: M14 melanoma
[24] = tested on: MALME-3M melanoma
[25] = tested on: MCF7 breast
[26] = tested on: MDA-MB-231 breast
[27] = tested on: MDA-MB-435
[28] = tested on: MDA-N
[29] = tested on: MOLT-4 leukemia
[30] = tested on: NCI-H226 lung
[31] = tested on: NCI-H23 lung
[32] = tested on: NCI-H460 lung
[33] = tested on: NCI-H522 lung
[34] = tested on: NCI/ADR-RES ovarian
[35] = tested on: OVCAR-3 ovarian
[36] = tested on: OVCAR-4 ovarian
[37] = tested on: OVCAR-5 ovarian
[38] = tested on: OVCAR-8 ovarian
[39] = tested on: PC-3 prostate
[40] = tested on: RPMI-8226 leukemia
[41] = tested on: RXF 393 renal
[42] = tested on: SF-268 CNS
[43] = tested on: SF-295 CNS
[44] = tested on: SF-539 CNS
[45] = tested on: SK-MEL-2 melanoma
[46] = tested on: SK-MEL-28 melanoma
[47] = tested on: SK-MEL-5 melanoma
[48] = tested on: SK-OV-3 ovarian
[49] = tested on: SN12C renal
[50] = tested on: SNB-19 CNS
[51] = tested on: SNB-75 CNS
[52] = tested on: SR leukemia
[53] = tested on: SW-620 colon
[54] = tested on: T-47D breast
[55] = tested on: TK-10 renal
[56] = tested on: U251 CNS
[57] = tested on: UACC-257 melanoma
[58] = tested on: UACC-62 melanoma
[59] = tested on: UO-31 renal

**Q.** COc1ccc(C(=O)/C=C2\C(=O)Nc3ccc(Br)cc32)cc1 was tested. Which TGI [1] did it give?
**A.** 3.74 µM

**Q.** What about the TGI [2] of the same molecule?
**A.** 33.7 µM

**Q.** What about the TGI [3] of the same molecule?
**A.** > 51.2 µM

**Q.** What about the TGI [4] of the same molecule?
**A.** 3.4 µM

**Q.** What about the TGI [5] of the same molecule?
**A.** 13.8 µM

**Q.** And the TGI [6]?
**A.** 21.4 µM

**Q.** And the TGI [7]?
**A.** 32.2 µM

**Q.** What about the TGI [8] of the same molecule?
**A.** 4.56 µM

**Q.** What about the TGI [9] of the same molecule?
**A.** 19.9 µM

**Q.** And the TGI [10]?
**A.** 29.1 µM

**Q.** And the TGI [11]?
**A.** 12.3 µM

**Q.** What about the TGI [12] of the same molecule?
**A.** 8.7 µM

**Q.** What about the TGI [13] of the same molecule?
**A.** 4.86 µM

**Q.** And the TGI [14]?
**A.** 6.37 µM

**Q.** And the TGI [15]?
**A.** 37.9 µM

**Q.** What about the TGI [16] of the same molecule?
**A.** 8.39 µM

**Q.** And the TGI [17]?
**A.** 50.3 µM

**Q.** And the TGI [18]?
**A.** 3.28 µM

**Q.** And the TGI [19]?
**A.** 11.4 µM

**Q.** And the TGI [20]?
**A.** > 100 µM

**Q.** What about the TGI [21] of the same molecule?
**A.** 9.16 µM

**Q.** And the TGI [22]?
**A.** 4.27 µM

**Q.** And the TGI [23]?
**A.** > 48.3 µM

**Q.** And the TGI [24]?
**A.** 34.6 µM

**Q.** And the TGI [25]?
**A.** 21.1 µM

**Q.** What about the TGI [26] of the same molecule?
**A.** 15.5 µM

**Q.** What about the TGI [27] of the same molecule?
**A.** 27.8 µM

**Q.** And the TGI [28]?
**A.** 16.7 µM

**Q.** What about the TGI [29] of the same molecule?
**A.** > 21.9 µM

**Q.** What about the TGI [30] of the same molecule?
**A.** 28.6 µM

**Q.** What about the TGI [31] of the same molecule?
**A.** 16.2 µM

**Q.** What about the TGI [32] of the same molecule?
**A.** 26.7 µM

**Q.** What about the TGI [33] of the same molecule?
**A.** 13.4 µM

**Q.** And the TGI [34]?
**A.** 3.95 µM

**Q.** What about the TGI [35] of the same molecule?
**A.** 11.2 µM

**Q.** What about the TGI [36] of the same molecule?
**A.** 32.1 µM

**Q.** And the TGI [37]?
**A.** 46.1 µM

**Q.** What about the TGI [38] of the same molecule?
**A.** 4.7 µM

**Q.** What about the TGI [39] of the same molecule?
**A.** 23.1 µM

**Q.** And the TGI [40]?
**A.** > 23.8 µM

**Q.** What about the TGI [41] of the same molecule?
**A.** 5.08 µM

**Q.** And the TGI [42]?
**A.** 47.4 µM

**Q.** What about the TGI [43] of the same molecule?
**A.** 30.6 µM

**Q.** And the TGI [44]?
**A.** 25.7 µM

**Q.** And the TGI [45]?
**A.** 37.4 µM

**Q.** What about the TGI [46] of the same molecule?
**A.** 29 µM

**Q.** And the TGI [47]?
**A.** > 50.4 µM

**Q.** What about the TGI [48] of the same molecule?
**A.** 29.6 µM

**Q.** And the TGI [49]?
**A.** 6.62 µM

**Q.** And the TGI [50]?
**A.** 36.2 µM

**Q.** And the TGI [51]?
**A.** 27.8 µM

**Q.** And the TGI [52]?
**A.** > 21.2 µM

**Q.** What about the TGI [53] of the same molecule?
**A.** 7.83 µM

**Q.** And the TGI [54]?
**A.** 26.3 µM

**Q.** And the TGI [55]?
**A.** 3.32 µM

**Q.** What about the TGI [56] of the same molecule?
**A.** 34.2 µM

**Q.** And the TGI [57]?
**A.** 25.9 µM

**Q.** What about the TGI [58] of the same molecule?
**A.** 29 µM

**Q.** What about the TGI [59] of the same molecule?
**A.** 5.05 µM
